Columns and labels:
Details in all cases: read-out: Km[HCO3 ^-]; pH 8, 50 mM NaCl, 24 °C; labelled compound; corrected for respiratory Ci
[1] = molecular target: T1, SbtA7942 (Synechococcus elongatus, UniProt Q31N64)
T1 construct: gene Synpcc7942_1475

[2] = test system: T2, SbtA5701 (SbtA1)
T2 construct: gene sbtA

[3] = molecular target: T3, SbtA6803 (Synechocystis sp. PCC 6803, UniProt P73953)
T3 construct: gene slr1512

[4] = test system: T4, SbtA6307 (SbtA1)
T4 construct: gene sbtA

Measured: Km

T3 sequence (P73953 1-374): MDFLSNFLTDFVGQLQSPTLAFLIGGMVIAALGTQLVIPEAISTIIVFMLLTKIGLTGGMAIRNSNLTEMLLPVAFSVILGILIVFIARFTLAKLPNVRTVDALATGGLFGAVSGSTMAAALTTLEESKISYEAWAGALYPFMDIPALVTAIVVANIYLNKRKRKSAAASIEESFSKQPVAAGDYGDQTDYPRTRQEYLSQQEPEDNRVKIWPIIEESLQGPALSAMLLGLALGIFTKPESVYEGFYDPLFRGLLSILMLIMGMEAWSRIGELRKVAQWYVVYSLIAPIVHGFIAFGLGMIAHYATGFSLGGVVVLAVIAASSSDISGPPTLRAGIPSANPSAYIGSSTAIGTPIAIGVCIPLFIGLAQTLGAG
T1 sequence (Q31N64 1-373): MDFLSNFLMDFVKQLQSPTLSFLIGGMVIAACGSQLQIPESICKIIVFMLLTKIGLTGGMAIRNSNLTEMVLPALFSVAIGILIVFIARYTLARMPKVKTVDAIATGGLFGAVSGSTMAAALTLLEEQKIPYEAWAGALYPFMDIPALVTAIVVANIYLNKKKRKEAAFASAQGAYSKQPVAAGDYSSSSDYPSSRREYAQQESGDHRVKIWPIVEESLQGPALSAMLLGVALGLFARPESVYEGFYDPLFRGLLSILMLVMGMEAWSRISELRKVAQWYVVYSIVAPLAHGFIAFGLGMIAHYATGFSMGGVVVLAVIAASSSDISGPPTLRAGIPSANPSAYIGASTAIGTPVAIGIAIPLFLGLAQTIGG

O=C(O)O [HCO3 ^-]
< 100 µM: [1] | [2] | [3] | [4]

— paper PMC4275256 (PLoS ONE, 2014)
